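A five-concentration, 48-hour dose response in 96-well plates underlies each endpoint, interpolated linearly between surrounding concentrations. TGI: total growth inhibition.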
Experiments:
Assay in all cases: NCI tumour cell line growth inhibition, 48 h
MDA-MB-435 = tested on: MDA-MB-435
HCT-15 colon = tested on: HCT-15 colon
CCRF-CEM leukemia = tested on: CCRF-CEM leukemia
SNB-19 CNS = tested on: SNB-19 CNS
OVCAR-4 ovarian = tested on: OVCAR-4 ovarian
SK-OV-3 ovarian = tested on: SK-OV-3 ovarian
EKVX NSCLC = tested on: EKVX NSCLC
MALME-3M melanoma = tested on: MALME-3M melanoma
COLO 205 colon = tested on: COLO 205 colon
HCC-2998 colon = tested on: HCC-2998 colon
BT-549 breast = tested on: BT-549 breast
OVCAR-3 ovarian = tested on: OVCAR-3 ovarian
ACHN renal = tested on: ACHN renal
IGROV1 ovarian = tested on: IGROV1 ovarian
LOX IMVI melanoma = tested on: LOX IMVI melanoma
M14 melanoma = tested on: M14 melanoma
SF-295 CNS = tested on: SF-295 CNS
A549 NSCLC = tested on: A549 NSCLC
SK-MEL-28 melanoma = tested on: SK-MEL-28 melanoma
SF-539 CNS = tested on: SF-539 CNS
K-562 leukemia = tested on: K-562 leukemia
NCI-H226 lung = tested on: NCI-H226 lung
OVCAR-5 ovarian = tested on: OVCAR-5 ovarian
MDA-MB-231 breast = tested on: MDA-MB-231 breast
NCI-H23 lung = tested on: NCI-H23 lung
KM12 colon = tested on: KM12 colon
RXF 393 renal = tested on: RXF 393 renal
786-0 renal = tested on: 786-0 renal
TK-10 renal = tested on: TK-10 renal
MOLT-4 leukemia = tested on: MOLT-4 leukemia
NCI/ADR-RES ovarian = tested on: NCI/ADR-RES ovarian
HOP-62 NSCLC = tested on: HOP-62 NSCLC
NCI-H460 lung = tested on: NCI-H460 lung
OVCAR-8 ovarian = tested on: OVCAR-8 ovarian
CAKI-1 renal = tested on: CAKI-1 renal
HS 578T breast = tested on: HS 578T breast
MCF7 breast = tested on: MCF7 breast
MDA-N = tested on: MDA-N
SF-268 CNS = tested on: SF-268 CNS
HT29 colon = tested on: HT29 colon
RPMI-8226 leukemia = tested on: RPMI-8226 leukemia
SN12C renal = tested on: SN12C renal
UO-31 renal = tested on: UO-31 renal
SK-MEL-2 melanoma = tested on: SK-MEL-2 melanoma
SW-620 colon = tested on: SW-620 colon
T-47D breast = tested on: T-47D breast
PC-3 prostate = tested on: PC-3 prostate
UACC-257 melanoma = tested on: UACC-257 melanoma
U251 CNS = tested on: U251 CNS
SR leukemia = tested on: SR leukemia
HCT-116 colon = tested on: HCT-116 colon
SK-MEL-5 melanoma = tested on: SK-MEL-5 melanoma
DU-145 prostate = tested on: DU-145 prostate
NCI-H522 lung = tested on: NCI-H522 lung
SNB-75 CNS = tested on: SNB-75 CNS
A498 renal = tested on: A498 renal
HOP-92 NSCLC = tested on: HOP-92 NSCLC
UACC-62 melanoma = tested on: UACC-62 melanoma

## C=C(C)c1nc(C#N)c(N)o1
MDA-MB-435
  TGI: > 100 µM
HCT-15 colon
  TGI: > 100 µM
CCRF-CEM leukemia
  TGI: > 100 µM
SNB-19 CNS
  TGI: > 100 µM
OVCAR-4 ovarian
  TGI: > 100 µM
SK-OV-3 ovarian
  TGI: > 100 µM
EKVX NSCLC
  TGI: > 100 µM
MALME-3M melanoma
  TGI: > 100 µM
COLO 205 colon
  TGI: > 100 µM
HCC-2998 colon
  TGI: > 100 µM
BT-549 breast
  TGI: > 100 µM
OVCAR-3 ovarian
  TGI: > 100 µM
ACHN renal
  TGI: > 100 µM
IGROV1 ovarian
  TGI: > 100 µM
LOX IMVI melanoma
  TGI: > 100 µM
M14 melanoma
  TGI: > 100 µM
SF-295 CNS
  TGI: > 100 µM
A549 NSCLC
  TGI: > 100 µM
SK-MEL-28 melanoma
  TGI: > 100 µM
SF-539 CNS
  TGI: > 100 µM
K-562 leukemia
  TGI: > 100 µM
NCI-H226 lung
  TGI: > 100 µM
OVCAR-5 ovarian
  TGI: > 100 µM
MDA-MB-231 breast
  TGI: > 100 µM
NCI-H23 lung
  TGI: > 100 µM
KM12 colon
  TGI: > 100 µM
RXF 393 renal
  TGI: > 100 µM
786-0 renal
  TGI: > 100 µM
TK-10 renal
  TGI: > 100 µM
MOLT-4 leukemia
  TGI: > 100 µM
NCI/ADR-RES ovarian
  TGI: > 100 µM
HOP-62 NSCLC
  TGI: > 100 µM
NCI-H460 lung
  TGI: > 100 µM
OVCAR-8 ovarian
  TGI: > 100 µM
CAKI-1 renal
  TGI: > 100 µM
HS 578T breast
  TGI: > 100 µM
MCF7 breast
  TGI: > 100 µM
MDA-N
  TGI: > 100 µM
SF-268 CNS
  TGI: > 100 µM
HT29 colon
  TGI: > 100 µM
RPMI-8226 leukemia
  TGI: > 100 µM
SN12C renal
  TGI: > 100 µM
UO-31 renal
  TGI: > 100 µM
SK-MEL-2 melanoma
  TGI: > 100 µM
SW-620 colon
  TGI: > 100 µM
T-47D breast
  TGI: > 100 µM
PC-3 prostate
  TGI: > 100 µM
UACC-257 melanoma
  TGI: > 100 µM
U251 CNS
  TGI: > 100 µM
SR leukemia
  TGI: > 100 µM
HCT-116 colon
  TGI: > 100 µM
SK-MEL-5 melanoma
  TGI: > 100 µM
DU-145 prostate
  TGI: > 100 µM

## COc1cc2nc3c(=C(C#N)C#N)c4ccccc4n3c(=O)c2cc1OC
MDA-MB-435
  TGI: > 100 µM
NCI-H522 lung
  TGI: > 100 µM
HCT-15 colon
  TGI: > 100 µM
SNB-75 CNS
  TGI: > 100 µM
CCRF-CEM leukemia
  TGI: > 100 µM
SNB-19 CNS
  TGI: > 100 µM
OVCAR-4 ovarian
  TGI: > 100 µM
SK-OV-3 ovarian
  TGI: > 100 µM
EKVX NSCLC
  TGI: > 100 µM
COLO 205 colon
  TGI: > 100 µM
HCC-2998 colon
  TGI: > 100 µM
BT-549 breast
  TGI: > 100 µM
OVCAR-3 ovarian
  TGI: > 100 µM
ACHN renal
  TGI: > 100 µM
IGROV1 ovarian
  TGI: > 100 µM
LOX IMVI melanoma
  TGI: > 100 µM
M14 melanoma
  TGI: > 100 µM
SF-295 CNS
  TGI: > 100 µM
A549 NSCLC
  TGI: > 100 µM
A498 renal
  TGI: > 100 µM
SF-539 CNS
  TGI: > 100 µM
K-562 leukemia
  TGI: > 100 µM
NCI-H226 lung
  TGI: > 100 µM
OVCAR-5 ovarian
  TGI: > 100 µM
MDA-MB-231 breast
  TGI: > 100 µM
NCI-H23 lung
  TGI: > 100 µM
KM12 colon
  TGI: > 100 µM
RXF 393 renal
  TGI: > 100 µM
786-0 renal
  TGI: > 100 µM
TK-10 renal
  TGI: > 100 µM
MOLT-4 leukemia
  TGI: > 100 µM
NCI/ADR-RES ovarian
  TGI: > 100 µM
HOP-62 NSCLC
  TGI: > 100 µM
NCI-H460 lung
  TGI: > 100 µM
HOP-92 NSCLC
  TGI: > 100 µM
OVCAR-8 ovarian
  TGI: > 100 µM
CAKI-1 renal
  TGI: > 100 µM
HS 578T breast
  TGI: > 100 µM
MCF7 breast
  TGI: > 100 µM
MDA-N
  TGI: > 100 µM
SF-268 CNS
  TGI: > 100 µM
HT29 colon
  TGI: > 100 µM
RPMI-8226 leukemia
  TGI: > 100 µM
SN12C renal
  TGI: > 100 µM
UO-31 renal
  TGI: > 100 µM
SK-MEL-2 melanoma
  TGI: > 100 µM
SW-620 colon
  TGI: > 100 µM
T-47D breast
  TGI: > 100 µM
PC-3 prostate
  TGI: > 100 µM
UACC-257 melanoma
  TGI: > 100 µM
U251 CNS
  TGI: > 100 µM
SR leukemia
  TGI: > 100 µM
UACC-62 melanoma
  TGI: > 100 µM
HCT-116 colon
  TGI: > 100 µM
SK-MEL-5 melanoma
  TGI: > 100 µM
DU-145 prostate
  TGI: > 100 µM

## COC(=O)Cc1c(-c2[nH]c3ccccc3c2CC(=O)OC)[nH]c2ccccc12
MDA-MB-435
  TGI: > 100 µM
NCI-H522 lung
  TGI: > 100 µM
HCT-15 colon
  TGI: > 100 µM
SNB-75 CNS
  TGI: > 100 µM
CCRF-CEM leukemia
  TGI: > 100 µM
SNB-19 CNS
  TGI: > 100 µM
OVCAR-4 ovarian
  TGI: > 100 µM
SK-OV-3 ovarian
  TGI: > 100 µM
EKVX NSCLC
  TGI: > 100 µM
MALME-3M melanoma
  TGI: > 100 µM
COLO 205 colon
  TGI: > 100 µM
HCC-2998 colon
  TGI: > 100 µM
BT-549 breast
  TGI: > 100 µM
OVCAR-3 ovarian
  TGI: > 41.2 µM
ACHN renal
  TGI: > 100 µM
IGROV1 ovarian
  TGI: > 100 µM
LOX IMVI melanoma
  TGI: > 100 µM
M14 melanoma
  TGI: > 100 µM
SF-295 CNS
  TGI: > 100 µM
A549 NSCLC
  TGI: > 100 µM
A498 renal
  TGI: > 100 µM
SK-MEL-28 melanoma
  TGI: > 100 µM
SF-539 CNS
  TGI: > 100 µM
K-562 leukemia
  TGI: > 100 µM
NCI-H226 lung
  TGI: > 100 µM
OVCAR-5 ovarian
  TGI: > 100 µM
MDA-MB-231 breast
  TGI: > 100 µM
NCI-H23 lung
  TGI: > 100 µM
KM12 colon
  TGI: > 100 µM
RXF 393 renal
  TGI: > 100 µM
786-0 renal
  TGI: > 100 µM
TK-10 renal
  TGI: > 100 µM
MOLT-4 leukemia
  TGI: > 100 µM
NCI/ADR-RES ovarian
  TGI: > 100 µM
HOP-62 NSCLC
  TGI: > 100 µM
NCI-H460 lung
  TGI: > 100 µM
HOP-92 NSCLC
  TGI: > 100 µM
OVCAR-8 ovarian
  TGI: > 100 µM
CAKI-1 renal
  TGI: > 100 µM
HS 578T breast
  TGI: > 100 µM
MCF7 breast
  TGI: > 100 µM
MDA-N
  TGI: > 100 µM
SF-268 CNS
  TGI: > 100 µM
HT29 colon
  TGI: > 100 µM
RPMI-8226 leukemia
  TGI: > 100 µM
SN12C renal
  TGI: > 100 µM
UO-31 renal
  TGI: > 100 µM
SK-MEL-2 melanoma
  TGI: > 100 µM
SW-620 colon
  TGI: > 100 µM
T-47D breast
  TGI: > 100 µM
PC-3 prostate
  TGI: > 100 µM
UACC-257 melanoma
  TGI: > 100 µM
U251 CNS
  TGI: > 100 µM
SR leukemia
  TGI: > 100 µM
UACC-62 melanoma
  TGI: > 100 µM
HCT-116 colon
  TGI: > 100 µM
SK-MEL-5 melanoma
  TGI: > 100 µM
DU-145 prostate
  TGI: > 100 µM
